Measurements: ChEMBL document CHEMBL2434896, “Carbonic anhydrase inhibitors. Synthesis of heterocyclic 4-substituted pyridine-3-sulfonamide derivatives and their inhibition of the human cytosolic isozymes I and II and transmembrane tumor-associated isozymes IX and XII” (Eur J Med Chem, 2013)
Active and inactive are the calls of the source. No cut-off for these calls is given here.

Tests used:
A498 = assay: Growth inhibition of human A498 cells at 10 uM after 48 hrs by sulforhodamine B assay; assay type: functional; details: A498, 48 h, read-out: GI
HOP-62 = assay: Growth inhibition of human HOP62 cells at 10 uM after 48 hrs by sulforhodamine B assay; assay type: functional
786-0 = assay: Growth inhibition of human 786-0 cells at 10 uM after 48 hrs by sulforhodamine B assay; assay type: functional
SF-295 = assay: Growth inhibition of human SF295 cells at 10 uM after 48 hrs by sulforhodamine B assay; assay type: functional
HL-60(TB) = assay: Growth inhibition of human HL-60(TB) cells at 10 uM after 48 hrs by sulforhodamine B assay; assay type: functional; details: HL-60, 48 h, read-out: GI
RPMI-8226 = assay: Growth inhibition of human RPMI8226 cells at 10 uM after 48 hrs by sulforhodamine B assay; assay type: functional; details: RPMI-8226, 48 h, read-out: GI
HT-29 = assay: Growth inhibition of human HT-29 cells at 10 uM after 48 hrs by sulforhodamine B assay; assay type: functional; details: HT-29, 48 h, read-out: GI
OVCAR-3 = assay: Growth inhibition of human OVCAR3 cells at 10 uM after 48 hrs by sulforhodamine B assay; assay type: functional
KM12 = assay: Growth inhibition of human KM12 cells at 10 uM after 48 hrs by sulforhodamine B assay; assay type: functional; details: KM12, 48 h, read-out: GI
COLO 205 = assay: Growth inhibition of human COLO205 cells at 10 uM after 48 hrs by sulforhodamine B assay; assay type: functional
OVCAR-5 = assay: Growth inhibition of human OVCAR5 cells at 10 uM after 48 hrs by sulforhodamine B assay; assay type: functional; details: OVCAR-5, 48 h, read-out: GI
TK-10 = assay: Growth inhibition of human TK10 cells at 10 uM after 48 hrs by sulforhodamine B assay; assay type: functional
SR = assay: Growth inhibition of human SR cells at 10 uM after 48 hrs by sulforhodamine B assay; assay type: functional; details: read-out: GI
HOP-92 = assay: Growth inhibition of human HOP92 cells at 10 uM after 48 hrs by sulforhodamine B assay; assay type: functional; details: HOP-92, 48 h, read-out: GI
Hs-578T = assay: Growth inhibition of human Hs 578T cells at 10 uM after 48 hrs by sulforhodamine B assay; assay type: functional
LOX IMVI = assay: Growth inhibition of human LOXIMVI cells at 10 uM after 48 hrs by sulforhodamine B assay; assay type: functional
NCI/ADR-RES = assay: Growth inhibition of human NCI-ADR-RES cells at 10 uM after 48 hrs by sulforhodamine B assay; assay type: functional
SK-MEL-2 = assay: Growth inhibition of human SK-MEL-2 cells at 10 uM after 48 hrs by sulforhodamine B assay; assay type: functional
CAKI-1 = assay: Growth inhibition of human CAKI-1 cells at 10 uM after 48 hrs by sulforhodamine B assay; assay type: functional; details: CAKI-1, 48 h, read-out: GI
MCF7 = assay: Growth inhibition of human MCF7 cells at 10 uM after 48 hrs by sulforhodamine B assay; assay type: functional
SF-268 = assay: Growth inhibition of human SF268 cells at 10 uM after 48 hrs by sulforhodamine B assay; assay type: functional
UACC-257 = assay: Growth inhibition of human UACC257 cells at 10 uM after 48 hrs by sulforhodamine B assay; assay type: functional
BT-549 = assay: Growth inhibition of human BT549 cells at 10 uM after 48 hrs by sulforhodamine B assay; assay type: functional; details: BT-549, 48 h, read-out: GI
NCI-H460 = assay: Growth inhibition of human NCI-H460 cells at 10 uM after 48 hrs by sulforhodamine B assay; assay type: functional
T47D = assay: Growth inhibition of human T47D cells at 10 uM after 48 hrs by sulforhodamine B assay; assay type: functional; details: read-out: GI
NCI-H226 = assay: Growth inhibition of human NCI-H226 cells at 10 uM after 48 hrs by sulforhodamine B assay; assay type: functional; details: NCI-H226, 48 h, read-out: GI
UACC-62 = assay: Growth inhibition of human UACC62 cells at 10 uM after 48 hrs by sulforhodamine B assay; assay type: functional; details: UACC-62, 48 h, read-out: GI
Carbonic anhydrase 9 = Carbonic anhydrase 9 (Homo sapiens, UniProt Q16790); assay: Inhibition of human carbonic anhydrase 9 after 15 mins by stopped flow CO2 hydration assay
UO-31 = assay: Growth inhibition of human UO31 cells at 10 uM after 48 hrs by sulforhodamine B assay; assay type: functional; details: UO-31, 48 h, read-out: GI
SF-539 = assay: Growth inhibition of human SF539 cells at 10 uM after 48 hrs by sulforhodamine B assay; assay type: functional; details: SF-539, 48 h, read-out: GI
NCI-H322M = assay: Growth inhibition of human NCI-H322M cells at 10 uM after 48 hrs by sulforhodamine B assay; assay type: functional
MDA-MB-435 = assay: Growth inhibition of human MDA-MB-435 cells at 10 uM after 48 hrs by sulforhodamine B assay; assay type: functional
DU-145 = assay: Growth inhibition of human DU145 cells at 10 uM after 48 hrs by sulforhodamine B assay; assay type: functional
HCC 2998 = assay: Growth inhibition of human HCC2998 cells at 10 uM after 48 hrs by sulforhodamine B assay; assay type: functional
K562 = assay: Growth inhibition of human K562 cells at 10 uM after 48 hrs by sulforhodamine B assay; assay type: functional; details: K562, 48 h, read-out: GI
MOLT-4 = assay: Growth inhibition of human MOLT4 cells at 10 uM after 48 hrs by sulforhodamine B assay; assay type: functional; details: MOLT-4, 48 h, read-out: GI
SK-OV-3 = assay: Growth inhibition of human SKOV3 cells at 10 uM after 48 hrs by sulforhodamine B assay; assay type: functional; details: SK-OV-3, 48 h, read-out: GI
RXF 393 = assay: Growth inhibition of human RXF393 cells at 10 uM after 48 hrs by sulforhodamine B assay; assay type: functional
OVCAR-4 = assay: Growth inhibition of human OVCAR4 cells at 10 uM after 48 hrs by sulforhodamine B assay; assay type: functional; details: OVCAR-4, 48 h, read-out: GI
SNB-75 = assay: Growth inhibition of human SNB75 cells at 10 uM after 48 hrs by sulforhodamine B assay; assay type: functional
IGROV-1 = assay: Growth inhibition of human IGROV1 cells at 10 uM after 48 hrs by sulforhodamine B assay; assay type: functional; details: IGROV-1, 48 h, read-out: GI
SNB-19 = assay: Growth inhibition of human SNB19 cells at 10 uM after 48 hrs by sulforhodamine B assay; assay type: functional; details: SNB-19, 48 h, read-out: GI
OVCAR-8 = assay: Growth inhibition of human OVCAR8 cells at 10 uM after 48 hrs by sulforhodamine B assay; assay type: functional; details: OVCAR-8, 48 h, read-out: GI
CCRF-CEM = assay: Growth inhibition of human CCRF-CEM cells at 10 uM after 48 hrs by sulforhodamine B assay; assay type: functional; details: read-out: GI
MDA-MB-468 = assay: Growth inhibition of human MDA-MB-468 cells at 10 uM after 48 hrs by sulforhodamine B assay; assay type: functional; details: MDA-MB-468, 48 h, read-out: GI
SK-MEL-5 = assay: Growth inhibition of human SK-MEL-5 cells at 10 uM after 48 hrs by sulforhodamine B assay; assay type: functional; details: SK-MEL-5, 48 h, read-out: GI
SK-MEL-28 = assay: Growth inhibition of human SK-MEL-28 cells at 10 uM after 48 hrs by sulforhodamine B assay; assay type: functional, cell-based

`NS(=O)(=O)c1cnccc1N1CCC(Cc2ccccc2)CC1` was tested, and the inhibition of growth at 10 µM (A498) was 8%, the “growth inhibition (GI)” value (HOP-62) was “inactive” and the “growth inhibition (GI)” value (786-0) was “inactive”. For the same compound, the “growth inhibition (GI)” value (SF-295) was “inactive”, the inhibition of growth at 10 µM (HL-60(TB)) was 3% and the inhibition of growth at 10 µM (RPMI-8226) was 11%. The inhibition of growth at 10 µM (HT-29) was 2%, the “growth inhibition (GI)” value (OVCAR-3) was “inactive” and the inhibition of growth at 10 µM (KM12) was 2%. For the same compound, the “growth inhibition (GI)” value (COLO 205) was “inactive”, the inhibition of growth at 10 µM (OVCAR-5) was 1% and the “growth inhibition (GI)” value (TK-10) was “inactive”. For the same compound, the inhibition of growth at 10 µM (SR) was 18%, the inhibition of growth at 10 µM (HOP-92) was 39% and the “growth inhibition (GI)” value (Hs-578T) was “inactive”. For the same compound, the “growth inhibition (GI)” value (LOX IMVI) was “inactive”, the “growth inhibition (GI)” value (NCI/ADR-RES) was “inactive” and the “growth inhibition (GI)” value (SK-MEL-2) was “inactive”. For the same compound, the inhibition of growth at 10 µM (CAKI-1) was 3%, the “growth inhibition (GI)” value (MCF7) was “inactive” and the “growth inhibition (GI)” value (SF-268) was “inactive”. The “growth inhibition (GI)” value (UACC-257) was “inactive”, the inhibition of growth at 10 µM (BT-549) was 13% and the “growth inhibition (GI)” value (NCI-H460) was “inactive”. For the same compound, the inhibition of growth at 10 µM (T47D) was 10%, the inhibition of growth at 10 µM (NCI-H226) was 12% and the inhibition of growth at 10 µM (UACC-62) was 3%. For the same compound, the Ki (Carbonic anhydrase 9) was 136 nM, the inhibition of growth at 10 µM (UO-31) was 21% and the inhibition of growth at 10 µM (SF-539) was 4%. The “growth inhibition (GI)” value (NCI-H322M) was “inactive”, the “growth inhibition (GI)” value (MDA-MB-435) was “inactive” and the “growth inhibition (GI)” value (DU-145) was “inactive”. The “growth inhibition (GI)” value (HCC 2998) was “inactive”, the inhibition of growth at 10 µM (K562) was 9% and the inhibition of growth at 10 µM (MOLT-4) was 9%. For the same compound, the inhibition of growth at 10 µM (SK-OV-3) was 2%, the “growth inhibition (GI)” value (RXF 393) was “inactive” and the inhibition of growth at 10 µM (OVCAR-4) was 2%. For the same compound, the “growth inhibition (GI)” value (SNB-75) was “inactive”, the inhibition of growth at 10 µM (IGROV-1) was 3% and the inhibition of growth at 10 µM (SNB-19) was 2%. For the same compound, the inhibition of growth at 10 µM (OVCAR-8) was 1%, the inhibition of growth at 10 µM (CCRF-CEM) was 3% and the inhibition of growth at 10 µM (MDA-MB-468) was 8%. For the same compound, the inhibition of growth at 10 µM (SK-MEL-5) was 4% and the “growth inhibition (GI)” value (SK-MEL-28) was “inactive”.
